Here are results for four compounds from US12630538B2, “Anti-viral compounds” (Aligos Therapeutics, Inc., priority 2022, dated 2026).

pEC50, pIC50: −log10 of the molar value.

The target of one series is 3CLpro (Severe acute respiratory syndrome coronavirus 2, UniProt P0DTD1). The conditions noted are these: cited from earlier work.
For the next series, the system named is SARS-CoV-2. The conditions noted are these: cited from earlier work.
For a further series, the target named is T1, SARS-Cov-2 3CLpro (Severe acute respiratory syndrome coronavirus 2, UniProt P0DTD1).
T1 construct: 3CLpro and HRV3C was added using a Multidrop Combi
Kind of series: SARS-Cov-2 3CLpro and HRV3C duplex assay (SAMDI-MS): 3CLpro. The conditions noted are these: 30 mins preincubation. The series is classed as biochemical.

Series [1] is described as follows: Cytotoxicity in HeLa cells without OC43 virus. The series is classed as cell-based. The conditions noted are these: human, cell-titer-glo. As for the experimental part: (§1) The human beta-coronavirus OC43 was purchased from ATCC (Manassas, VA) and propagated using HCT-8 human colorectal epithelial cells (ATCC). HeLa human cervical epithelial cells (ATCC) were used as susceptible host cell lines and were cultured using EMEM media, supplemented with 10% fetal bovine serum (FBS), 1% (v/v) penicillin/streptomycin (P/S), 1% (v/v) HEPES and 1% (v/v) cellgro Glutagro™ supplement (all Corning, Manassas, VA) at 37° C. For the OC43 antiviral assay, 1.5×10^4 HeLa cells per well were plated in 100 μL complete media in white 96-well plates with clear bottoms at 37° C. for up to 24 h to facilitate attachment and allow cells to recover from seeding stresses. Next day, the cell culture medium was removed. […] 100 μL of OC43 virus stock was diluted to a concentration known to produce optimal cytopathic effect, inducing 80-90% reduction in cell viability. 96-well plates were incubated for 6 (HeLa) days at 33° C.; each plate contains uninfected control wells as well as virus-infected wells that were not treated with compound. Cytotoxicity plates without the addition of OC43 virus were carried out in parallel. At the end of the incubation period, 100 μL cell culture supernatant was replaced with 100 μL cell-titer-glo reagent (Promega, Madison, WI) and incubated for at least 10 min at rt prior to measuring luminescence. Luminescence was measured on a Perkin Elmer (Waltham, MA) Envision plate reader. Antiviral % inhibition was calculated as follows: [(Compound treated cells infected sample)−(no compound infected control)]/[(Uninfected control)−(no compound infected control)]*100; Using GraphPad (San Diego, CA) prism software version 8.3.1, the antiviral dose-response plot was generated as a sigmoidal fit, log(inhibitor) vs response-variable slope (four parameters) model and the EC50 was calculated which is the predicted compound concentration corresponding to a 50% inhibition of the viral cytopathic effect.

Series [2] deals with SARS-CoV-2 B.1.1.7 lineage. The experiment in a line: microbe, parasite or virus in culture. In kind it is cell-based. The conditions noted are these: Severe acute respiratory syndrome coronavirus 2, 96 h; read-out: A549-dual_ACE2_TMPRSS2 (EC50).
Another series concerns the target T2, human cathepsin L (Homo sapiens, UniProt P07711).
T2 construct: purchased R&D Systems
Kind of series: Cathepsin L assay. The series is classed as biochemical. As to conditions: 10 pM human cathepsin L, substrate Z-FR-AMC 2 μM. As for the experimental part: For the cathepsin L assay, 10 pM of human cathepsin L (R&D Systems; Minneapolis, MN) was preincubated for 30 mins with test compounds. Reactions were initiated by the addition of a peptide substrate Z-FR-AMC (final concentration 2 μM, Anaspec; Fremont, CA). Fluorescence was measured at 2-minute intervals for 30 mins using a 355/460 excitation/emission filter module on an Envision plate reader (Perkin Elmer; Waltham, MA). The IC50 values were calculated for each assay by fitting the curves using a four-parameter equation in GraphPad Prism.

A further series can be described thus: in vitro. The conditions noted are these: human, A549-dual ACE2 TMPRSS2 cells without virus.
The target of a further series is T3, HRV3C (Human rhinovirus 14, UniProt P03303).
T3 construct: 3CLpro and HRV3C was added using a Multidrop Combi
The experiment in a line: SARS-Cov-2 3CLpro and HRV3C duplex assay (SAMDI-MS): HRV3C. In kind it is biochemical. The conditions noted are these: 30 mins preincubation, read-out: HRV (IC50).

Series [3] concerns human beta-coronavirus OC43. Kind of series: OC43 coronavirus antiviral assay in HeLa cells. In kind it is cell-based. The conditions noted are these: Betacoronavirus 1, 144 h, 6 days at 33° C., viral cytopathic effect, cell-titer-glo. Here is the method:
as §1
A general note: Protection from cytopathic effect is a common read-out in antiviral testing.

T2 sequence (P07711 114-333): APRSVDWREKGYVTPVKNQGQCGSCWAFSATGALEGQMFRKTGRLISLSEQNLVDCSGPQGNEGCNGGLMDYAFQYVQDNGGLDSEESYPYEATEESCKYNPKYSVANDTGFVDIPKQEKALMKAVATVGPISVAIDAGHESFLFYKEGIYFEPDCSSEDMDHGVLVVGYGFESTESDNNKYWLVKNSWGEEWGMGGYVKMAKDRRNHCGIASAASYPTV
T3 sequence (P03303 1538-1719): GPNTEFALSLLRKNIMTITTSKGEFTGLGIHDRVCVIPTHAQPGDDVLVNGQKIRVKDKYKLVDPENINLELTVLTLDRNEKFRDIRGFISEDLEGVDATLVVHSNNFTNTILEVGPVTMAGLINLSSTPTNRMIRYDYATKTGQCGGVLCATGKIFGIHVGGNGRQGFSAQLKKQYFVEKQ

For the compound `CN1CCN(C(=O)N[C@@H](Cc2ccccc2)C(=O)N[C@H](/C=C/S(=O)(=O)c2ccccc2)CCc2ccccc2)CC1` [Compound K117777], the “inhibitory effect on the 3CLpro” value at 3CLpro was “lacks an inhibitory effect”. Further, the “antiviral effect when TMPRSS2 was expressed” value with SARS-CoV-2 (A549-ACE2 expressing TMPRSS2) is “abolished”. Also, the “inhibition of SARS-CoV-2” value in the series with SARS-CoV-2 (VeroE6, A549-ACE2 and/or HeLa-ACE2) was “potent inhibition”.
In general, pIC50 refers to the negative decadic logarithm of the IC50, by convention in mol/L. As usually defined, the CC50 is the concentration at which the toxic effect on the cells reaches its halfway point. The low end stands for harm at low concentration, the high end for better tolerance by the cells. As usually defined, the pEC50 is the EC50 on a negative log10 scale, so that one unit is a factor of ten. As for `COC(=O)N[C@H](C(=O)N1C[C@@H]2[C@H]3C[C@@H]([C@@H]2[C@H]1C(=O)N[C@H](C#N)C[C@@H]1CCNC1=O)[C@H](F)C3)C(C)(C)C` [Compound 2, methyl N-[(2S)-1-[(1S,2R,3S,6R,7S,9R)-3-{[(1S)-1-cyano-2-[(3S)-2-oxopyrrolidin-3-yl]ethyl]carbamoyl}-9-fluoro-4-azatricyclo[5.2.1.0^{2,6}]decan-4-yl]-3,3-dimethyl-1-oxobutan-2-yl]carbamate], the results for the pIC50 against SARS-Cov-2 3CLpro, against human cathepsin L and on HRV3C were > 7.70, ≤ 5.00 and < 6.30, respectively. Further, the CC50 at 6 days in series [1] was > 100000 nM. The values for the pEC50 in series [2] and in series [3] were 6.00 to 7.00 and > 7.00, respectively. Further, the CC50 in “in vitro” was > 1000 nM.
`CC(C)(C)[C@H](NC(=O)OC1CC1)C(=O)N1C[C@@H]2[C@H]3C[C@@H]([C@@H]2[C@H]1C(=O)N[C@H](C#N)C[C@@H]1CCNC1=O)[C@H](F)C3` [Compound 3, cyclopropyl ((S)-1-((1S,3aR,4S,6R,7S,7aR)-1-(((S)-1-cyano-2-((S)-2-oxopyrrolidin-3-yl)ethyl)carbamoyl)-6-fluorooctahydro-2H-4,7-methanoisoindol-2-yl)-3,3-dimethyl-1-oxobutan-2-yl)carbamate]: the pIC50 against SARS-Cov-2 3CLpro is > 7.70; against human cathepsin L, ≤ 5.00; at HRV3C, < 6.30. The CC50 at 6 days in series [1] was > 100000 nM. The pEC50 in [2] and in series [3] was > 7.00 in each case. Moreover, the CC50 in the series “in vitro” was > 1000 nM.
Regarding `COC(=O)N[C@H](C(=O)N1C[C@H]2[C@@H]([C@H]1C(=O)N[C@H](C#N)C[C@@H]1CCNC1=O)[C@H]1C=C[C@@H]2C1)C(C)(C)C` [Compound 1, methyl ((S)-1-((1S,3aR,4S,7R,7aS)-1-(((S)-1-cyano-2-((S)-2-oxopyrrolidin-3-yl)ethyl)carbamoyl)-1,3,3a,4,7,7a-hexahydro-2H-4,7-methanoisoindol-2-yl)-3,3-dimethyl-1-oxobutan-2-yl)carbamate], the pIC50 against SARS-Cov-2 3CLpro is > 7.70; at human cathepsin L it was ≤ 5.00; on HRV3C, < 6.30. For the same compound, in [1], the CC50 at 6 days was > 100000 nM. Also, the pEC50 in series [2] and in series [3] was > 7.00 each time. Moreover, the CC50 in the series “in vitro” was > 1000 nM.
